Laboratory results reported in patent publication US8133692B2, “Methods of predicting responsiveness to chemotherapeutic agents and selecting treatments” (University of South Florida, priority 2005, dated 2012).
Values belong to the compound of their own block, whether it stands above or below them. e = 2'-O-(2-methoxyethyl) (MOE); d = 2'-deoxy (DNA)

What was measured:
Format in all cases: cell-based, human
[1] = test system: phosphorylated Stat3; experiment: Western blot for phosphorylated Stat3 after gefitinib in NSCLC cells; details: 24 hours
Procedure: (§1) Protein expression analysis. Cell lysates were normalized for total protein content (50 μg) and subjected to SDS-PAGE as described by Song et al., Oncogene 22:4150-65 (2003). Primary antibodies used in these studies consisted of Stat3 (Transduction Laboratories; BD Biosciences, Mississauga, Ontario, Canada), pStat3 Y705 (Cell Signaling Technology), cleaved poly (ADP-ribose) polymerase (Cell Signaling Technology, Beverly, Mass.), Mcl-1 (Santa Cruz Biotechnology, Santa Cruz, Calif.), Bcl-2 (DAKO, Carpinteria, Calif.), Bcl-xL (PharMingen, San Diego, Calif.), and β-actin (Sigma-Aldrich, Milwaukee, Wis.). Detection of proteins was accomplished using horseradish peroxidase-conjugated secondary antibodies and enhanced chemiluminescence purchased through Amersham Biosciences (Pittsburgh, Pa.).

[2] = test system: Stat3 mRNA; experiment: RNase protection assay of Stat3 mRNA after transfection with antisense oligonucleotides; details: MDA-MB-435s cells; compared with the mismatch oligonucleotides; 24 and 36 hours after transfection
Procedure: (§2) The human breast cancer cell line MDA-MB-435s, harbors activated Stat3. The cells were grown in DMEM supplemented with 10% fetal bovine serum, 100 units/mL penicillin, and 100 μg/mL streptomycin. The cells were transfected with Stat3 antisense or mismatch oligonucleotides using Lipofectamine-Plus as described by the supplier (Life Technologies, Grand Island, N.Y.). The Stat3 antisense (5′[…]-3′) (SEQ ID NO: 1) and control mismatch (5′[…]-3′) (SEQ ID NO: 2) oligonucleotides were synthesized using phosphorothioate chemistry. To increase stability, oligonucleotides were synthesized with 2′-O-methoxyethyl modification of the five or three underlined terminal nucleotides. The final concentration for Stat3 antisense and control mismatch oligonucleotides was […]. Twenty-four and 36 hours after transfection, the mRNA levels and DNA-binding activities of Stat3 were measured by RNase protection and electrophoretic mobility shift (EMSA) assays, respectively.
RNase protection assay. Total RNA was isolated from MDA-MB-435s cells using the RNAeasy mini kit (Qiagen, Valencia, Calif.). RNase protection assays were carried out with the Riboquant hStress-1 template set containing Bcl-xL and Mcl-1 probes or custom-made multiprobe templates containing Stat3 probes (BD PharMingen, San Diego, Calif.). […]

[3] = test system: Stat3; experiment: EMSA of Stat3 DNA-binding activity after antisense transfection; details: MDA-MB-435s cells, 24 and 36 hours after transfection
Procedure: as §2
Nuclear extract preparation and EMSA. […] Following incubation of radiolabeled probes with nuclear extracts, protein-DNA complexes were resolved by nondenaturing PAGE and detected by autoradiography. […]

[4] = test system: MDA-MB-435s and MDA-MB-231 cells; experiment: Apoptosis assays (microscopy, in situ TUNEL, PARP cleavage Western blot) in breast cancer cells
Procedure: To assess whether apoptosis was occurring in the cells after blocking of Stat3 the cells were examined microscopically and a TUNEL assay and poly-(ADP)-ribose polymerase (PARP) cleavage assay were performed.
(§3) In situ terminal deoxyribonucleotidyl transferase-mediated dUTP nick end labeling and cellular proliferation assays. MDA-MB-435s and MDA-MB-231 cells were transfected with antisense or control mismatch oligonucleotides. After 48 hours, cells were labeled for apoptotic DNA strand breaks by terminal deoxyribonucleotidyl transferase-mediated dUTP nick end labeling (TUNEL) reaction using an in situ cell death detection assay (Roche Applied Science, Indianapolis, Ind.) according to the instructions of the supplier. TUNEL-positive nuclei were counted and the apoptotic index was expressed as the number of apoptotic cells in one microscopic field. To determine cellular viability, cells were harvested by trypsinization and counted by trypan blue exclusion assay at 24 and 48 hours after transfection. All experiments were done in triplicate.
(§4) Western blot analyses. Cells were lysed in a buffer containing 10 mmol/L Tris-HCl (pH 8.0), 150 mmol/L NaCl, 1% NP40, 0.5% sodium deoxycholate, 0.1% SDS, 1 mmol/L EDTA (pH 8.0), 2 mmol/L phenylmethylsulfonyl fluoride, 2 μg/mL aprotinin, 2 μg/mL leupeptin, and 1 mmol/L Na3VO4. For Western blot analyses, 30 μg of total extracted proteins were applied per lane before SDS-PAGE. Following transfer to nitrocellulose membranes, protein expression levels were detected using polyclonal anti-poly-(ADP-ribose) polymerase antibodies (Cell Signaling Technology, Beverly, Mass.). The expression of β-actin (Sigma-Aldrich, St. Louis, Mo.) was used as a normalization control for protein loading.

[5] = test system: MDA-MB-435s and MDA-MB-231 cells; experiment: Cellular viability by trypan blue exclusion assay; details: after 24 or 48 hours of incubation
Procedure: as §3

[6] = test system: MDA-MB-435s cells; experiment: Microarray gene expression profiling after blockade of Stat3; details: 24 hours
Procedure: Microarray gene expression profiling analyses were completed to assess the gene expression changes associated with blockade of Stat3 activity. Five micrograms of total RNA collected from MDA-MB-435s cells treated with antisense or control mismatch oligonucleotides for 24 hours served as the mRNA sources for microarray analysis. The poly(A) mRNA was specifically converted to cDNA and then amplified and labeled with biotin following the procedure initially described by Van Gelder et al., Proc. Natl. Acad. Sci. USA 87:1663-67 (1990) which is incorporated herein by reference. Hybridization with the biotin-labeled DNA, staining, and scanning of the microarray chips followed the prescribed procedure outlined in the Affymetrix technical manual.
The oligonucleotide probe arrays were Human Genome U133A chips (Affymetrix, Santa Clara, Calif.). Scanned output files were visually inspected for hybridization artifacts and then analyzed using Affymetrix Microarray MAS 5.0 software. The MAS 5.0 software identifies the increased and decreased genes between any two samples with a statistical algorithm that assesses the behavior of oligonucleotide probe sets designed to detect the same gene. Probe sets that yielded a change at P<0.0045 were identified as changed (increased or decreased). In addition, the data were processed using robust multiarray analysis as described by Bolstad et al., Bioinformatics 19:185-93 (2003) which is incorporated herein by reference in its entirety. […] Empirical estimates of the null distribution were determined using permutation analysis, thereby controlling the number of false positives. The significance analysis of microarrays (as described by Tusher et al., Proc Natl Acad Sci USA 98:5116-21 (2001), which is incorporated herein by reference) implements this approach to address the multiple testing problem and was also applied to the data analysis.

[7] = test system: Survivin; experiment: RNase protection assay and Western blot for Survivin after Stat3 antisense
Procedure: RNase protection assay. Total RNA was isolated from MDA-MB-435s cells using the RNAeasy mini kit (Qiagen, Valencia, Calif.). RNase protection assays were carried out with the Riboquant hStress-1 template set containing Bcl-xL and Mcl-1 probes or custom-made multiprobe templates containing Stat3 probes (BD PharMingen, San Diego, Calif.). Briefly, the multiprobe templates were synthesized by in vitro transcription with incorporation of […] and purified on Quick Spin RNA columns (Roche Applied Science, Indianapolis, Ind.). Labeled probe (1×10^6 cpm) was hybridized with 10 μg of total RNA through a temperature gradient of 90° C. to 56° C. over a 16-hour period. […]
Western blot analyses. […] Following transfer to nitrocellulose membranes, protein expression levels were detected using polyclonal anti-poly-(ADP-ribose) polymerase antibodies (Cell Signaling Technology, Beverly, Mass.). […]
The microarray data were validated using an RNase protection assay using a Survivin probe (BD PharMingen, San Diego, Calif.) as described above. […] Protein expression levels were detected using polyclonal anti-Stat3 (Santa Cruz Biotechnology, Santa Cruz, Calif.) and polyclonal anti-Survivin (Alpha Diagnostics International, San Antonio, Tex.) antibodies.

[8] = test system: H1650, H1975 and H1299 cells; experiment: Western blot for Stat3, cleaved PARP and Bcl-2 family proteins after antisense Stat3 in NSCLC cells
Procedure: as §1
To determine if Stat3 plays a role in survival in EGFR mutant cells, antisense Stat3 oligonucleotides were used to down-regulate Stat3 as described above. […] Levels of the Bcl-2 family proteins Bcl-xL, Mcl-1, and Bcl-2 were reduced in cells treated with antisense Stat3 consistent with the known role of Stat3 in regulating these proteins (FIG. 9E).

[9] = test system: Stat3; experiment: IL-6 stimulation: EMSA of Stat3 DNA-binding activity; details: serum-starved MDA-MB-435s cells; IL-6 20 or 30 ng/mL; within 30 minutes
Procedure: Nuclear extract preparation and EMSA. Nuclear extracts were prepared as previously described by Yu et al., Science 269:81-83 (1995), which is incorporated herein by reference, by high-salt extraction into 30 to 70 μL buffer [20 mmol/L HEPES (pH 7.9), 420 mmol/L NaCl, 1 mmol/L EDTA, 20% glycerol, 20 mmol/L NaF, 1 mmol/L Na3VO4, 1 mmol/L Na4P2O7, 1 mmol/L DTT, 0.5 mmol/L phenylmethylsulfonyl fluoride, 0.1 μmol/L aprotinin, 1 μmol/L leupeptin, and 1 μmol/L antipain]. For EMSA, 5 μg of total nuclear protein were used for each lane. EMSA was done using a ^32P-labeled oligonucleotide probe containing a high-affinity cis-inducible element (hSIE, m67 variant) derived from the c-fos gene promoter (sense strand 5′[…]-3′) (SEQ ID NO: 3) that binds activated Stat3 proteins. Following incubation of radiolabeled probes with nuclear extracts, protein-DNA complexes were resolved by nondenaturing PAGE and detected by autoradiography. Stat3 protein was supershifted in the EMSA by preincubation with Stat3 antibody (C-20X, Santa Cruz Biotechnology, Santa Cruz, Calif.).
To investigate whether cytokine-induced Stat3 activity correlates with increased Survivin expression in breast cancer cells, cells were stimulated with IL-6 to increase Stat3 activation. […]

[10] = test system: MDA-MB-435s cells; experiment: IL-6 stimulation: Western blot for phosphor-Stat3 and Survivin; details: IL-6 treatment, after 48 hours
Procedure: as §4
To investigate whether cytokine-induced Stat3 activity correlates with increased Survivin expression in breast cancer cells, cells were stimulated with IL-6 to increase Stat3 activation. For IL-6 stimulation, cells were serum-starved (DMEM supplemented with 0.1% fetal bovine serum) for 18 hours before IL-6 treatment (20 or 30 ng/mL in DMEM) for 30 minutes (EMSA) or 48 hours (Western blot analysis). Nuclear extracts and cell lysates were prepared for EMSA and Western blot analysis, respectively, as described above.

[11] = Survivin antisense 300 nmol/L, MDA-MB-435s and MDA-MB-231 cells

Compound: COc1cc2ncnc(Nc3ccc(F)c(Cl)c3)c2cc1OCCCN1CCOCC1 [gefitinib, Gefitinib]
phosphorylated Stat3 ([1]; H1650 cells with the L746-p753 deletion mutation in EGFR): no effect on phosphorylated Stat3
phosphorylated Stat3 ([1]; H1975 cells): no effect on phosphorylated Stat3
phosphorylated Stat3 ([1]; H3255 cells with the L858R mutation in EGFR, increasing doses): complete inhibition of phosphorylated Stat3

Compound: Stat3 antisense: Stat3 antisense 5′GCTCCAGCATCTGCTGCTTC-3′ (SEQ ID NO: 1), phosphorothioate chemistry with 2′-O-methoxyethyl modification of terminal nucleotides (sugars from the 5' end e5 d10 e5, all phosphorothioate, methylation of C not given here; listed as Homo sapiens)
Stat3 mRNA expression [2]: diminished Stat3 mRNA expression
Stat3 DNA-binding activity [3]: significant decrease in Stat3 DNA-binding activity
apoptosis by in situ TUNEL assay ([4]; Stat3 antisense, 48 hours): occurrence of apoptosis was confirmed
cleavage of poly-(ADP-ribose) polymerase ([4]; Stat3 antisense, 48 hours after treatment): cleavage of poly-(ADP-ribose) polymerase
vacuolated cells and cellular debris (light microscopy) ([4]; incubation for up to 48 hours): marked increase in vacuolated cells and cellular debris
growth inhibition by trypan blue exclusion [5]: induced significant growth inhibition
expression of Bcl-2 family proteins by microarray analysis [6]: did not reveal consistent decreases
expression of other IAP family members (X-linked IAP, cellular IAP-1, cellular IAP-2) by microarray [6]: no change
expression of Survivin by microarray analysis ([6]; antisense vs control mismatch): found to be diminished
mRNA expression of Survivin (RNase protection assay) ([7]; antisense oligonucleotide-treated breast cancer cells): decrease in mRNA expression of Survivin
Survivin protein expression (Western blot) ([7]; breast cancer cells): decreased Survivin expression
apoptosis ([8]; H1299 cells, despite Stat3 knock-down): No apoptosis was observed
Stat3 protein levels ([8]; H1650 and H1975 cells): decreased Stat3 protein levels
cleavage of poly(ADP-ribose) polymerase indicative of apoptosis ([8]; H1650 and H1975 cells): cleavage of poly(ADP-ribose) polymerase
Levels of the Bcl-2 family proteins Bcl-xL, Mcl-1, and Bcl-2 ([8]; cells treated with antisense Stat3 vs mismatch control): reduced

Compound: antisense oligonucleotides directed against Survivin: Antisense oligonucleotides directed against Survivin 5′-CCCAGCCTTCCAGCTCCTTG-3′ (SEQ ID NO: 4), synthesized using phosphorothioate chemistry (sugars from the 5' end e3 d14 e3, all phosphorothioate, methylation of C not given here; listed as Homo sapiens)
Poly-(ADP-ribose) polymerase cleavage [4, 11]: evident
in situ TUNEL staining [4, 11]: evident

Stat3 DNA-binding activity (EMSA) [9]: increases Stat3 DNA-binding activity
Compound: IL-6: interleukin-6, cytokine used to stimulate cells and increase Stat3 activation
Survivin protein expression (Western blot) [10]: induced
phosphor-Stat3 levels (Western blot) [10]: induced
